In ChEMBL document CHEMBL3137667, “[Drug-induced liver injury; fourteenth updated edition of the bibliographic database of liver injuries and related drugs]” (Gastroenterol Clin Biol, 2004):

Columns and labels:
[1] = human
[2] = human; remark: listed apart in the source
[3] = Highest frequency of moderate liver toxicity observed during clinical trials, expressed as a percentage. [column '% BIOL' in source]; conditions: human
[4] = human; remark: listed apart in the source
[5] = human, serum, 4383 h
[6] = human; remark: listed apart in the source
[7] = human; remark: listed apart in the source
[8] = human; remark: listed apart in the source
[9] = Highest frequency of acute liver toxicity observed during clinical trials, expressed as a percentage. [column '% AIGUE' in source]; conditions: human
[10] = human; remark: listed apart in the source
[11] = human; remark: listed apart in the source
[12] = human, serum
[13] = human, serum; remark: listed apart in the source
[14] = human; remark: listed apart in the source
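Wherever Hepatotoxicity (association with vascular disease) is given: count of indexed literature references reporting vascular liver injury in humans, e.g. peliosis hepatitis, hepatic veno-occlusive disease or Budd-Chiari syndrome.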
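Wherever Hepatotoxicity (benign tumour) is given: value is a count of indexed literature references citing a benign tumour confirmed by histopathology.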
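Wherever Hepatotoxicity (choleostasis) is given: human cholestatic liver injury, shown by histopathology or by peak ALT or AST elevation over alkaline phosphatase ratio below 2, value counts indexed literature reports.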
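Wherever Hepatotoxicity (chronic liver disease) is given: chronic liver injury confirmed by histopathology or persistently raised serum aminotransferase activity beyond 6 months, value given as the count of indexed literature references.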
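Wherever Hepatotoxicity (cirrhosis) is given: value is a count of indexed literature references reporting cirrhosis confirmed by histopathology.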
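Wherever Hepatotoxicity (cytolytic) is given: human cytolytic liver injury, shown by histopathology or by a ratio above 5 of peak ALT or AST elevation to alkaline phosphatase elevation, value counts indexed references.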
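Wherever Hepatotoxicity (granulomatous hepatitis) is given: value is a count of indexed literature references reporting granulomatous liver disease confirmed by histopathology.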
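Wherever Hepatotoxicity (malignant tumour) is given: malignant tumour confirmed by histopathology, value gives the count of indexed literature references reporting it.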
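Wherever Hepatotoxicity (severe hepatitis) is given: human clinical data: severe hepatitis, meaning potentially life-threatening liver failure or clinically observed cases, the value counts how many indexed literature references report it.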
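Wherever Hepatotoxicity (steatosis) is given: steatosis confirmed by histopathology, value is the count of indexed references.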

SMILES	Hepatotoxicity (association with vascular disease) [1]	Hepatotoxicity (benign tumour) [2]	Hepatotoxicity (moderate) [3] [%]	Hepatotoxicity (cytolytic) [4]	Hepatotoxicity (chronic liver disease) [5]	Hepatotoxicity (choleostasis) [6]	Hepatotoxicity (severe hepatitis) [7]	Hepatotoxicity (malignant tumour) [8]	Hepatotoxicity (acute) [9] [%]	Hepatotoxicity (steatosis) [10]	Hepatotoxicity (cirrhosis) [11]	Hepatotoxicity (acute) [12]	Hepatotoxicity (moderate) [13]	Hepatotoxicity (granulomatous hepatitis) [14]	Hepatotoxicity (moderate) ([3]; Liver) [%]	Hepatotoxicity (cytolytic) ([4]; Liver)	Hepatotoxicity (choleostasis) ([6]; Liver)	Hepatotoxicity (severe hepatitis) ([7]; Liver)	Hepatotoxicity (acute) ([9]; Liver) [%]	Hepatotoxicity (granulomatous hepatitis) ([14]; Liver)
CCCN1CCO[C@@H]2c3cc(O)ccc3CC[C@H]21 [NAXAGOLIDE]	0	0	11.1	0	0	0	0	0	0	0	0	0	1	0						
CCN1C(=O)NC(c2ccccc2)C1=O (configuration not stated) [ETHOTOIN]	0	0	2	0	0	0	0	0	0	0	0	0	1	0						
CN[C@@H]1[C@@H](O)[C@@H](O[C@@H]2[C@@H](O)[C@H](O[C@H]3O[C@H](CN)[C@@H](O)[C@H](O)[C@H]3O)[C@@H](N)C[C@H]2NC(=O)[C@@H](O)CN)OC[C@]1(C)O [ISEPAMICIN]	0	0	30	0	0	0	0	0	0	0	0	0	22	0						
COC1=C(OC)C(=O)C(CCCCCCCCCCO)=C(C)C1=O [IDEBENONE]	0	0	2.3	0	0	0	0	0	0	0	0	0	1	0						
CCC/C=C/C=C/C(=O)O[C@H]1/C(=C/C(=O)OC)C[C@H]2C[C@H]([C@@H](C)O)OC(=O)C[C@H](O)C[C@@H]3C[C@H](OC(C)=O)C(C)(C)[C@](O)(C[C@@H]4C/C(=C/C(=O)OC)C[C@H](/C=C/C(C)(C)[C@]1(O)O2)O4)O3 [BRYOSTATIN 1]	0	0	16.7	0	0	1	0	0	8.3	0	0	1	2	0						
Cc1c(F)c(N2CCNC(C)C2)cc2c1c(=O)c(C(=O)O)cn2C1CC1 (configuration not stated) [GREPAFLOXACIN]	0	0			0			0		0	0	0	22		14.3	0	0	0	0	0
Cc1c(C)c2ccc(OCCCN3CCN(Cc4ccc(Cl)cc4)CC3)cc2oc1=O	0	0	2	0	0	0	0	0	0	0	0	0	1	0						
N[C@H](C(=O)O)[C@@H]1CC(Cl)=NO1 [ACIVICIN]	0	0	62	0	0	0	0	0	0	0	0	0	3	0						
